The text below walks through data of patent US20210323950A1, “HERBICIDALLY ACTIVE BICYCLIC BENZOYLPYRAZOLES” (Bayer Aktiengesellschaft, priority 2018, published 2021).

Holding throughout (format): in vivo
One experiment concerns Setaria viridis (SETVI). Put plainly: Post-emergence herbicidal action against SETVI. Conditions: 20 g/ha, post-emergence at one-leaf stage, rated visually after about 3 weeks vs untreated controls. On the procedure:
(§1) SETVI: Setaria viridis 2. Post-Emergence Herbicidal Action and Crop Plant Compatibility Seeds of monocotyledonous and dicotyledonous weeds and crop plants are placed in sandy loam in plastic or organic planting pots, covered with soil and cultivated in a greenhouse under controlled growth conditions. 2 to 3 weeks after sowing, the test plants are treated at the one-leaf stage. The compounds of the invention, formulated in the form of wettable powders (WP) or as emulsion concentrates (EC), are then sprayed onto the green parts of the plants as aqueous suspension or emulsion with addition of 0.5% additive at a water application rate of […] (converted). After the test plants had been kept in the greenhouse under optimum growth conditions for about 3 weeks, the activity of the preparations is rated visually in comparison to untreated controls. The tables below show the herbicidal activity of numerous compounds according to the invention against important harmful plants. For example, 100% activity=the plants have died, 0% activity=like control plants.

Experiment [1] relates to Abutilon theophrasti (ABUTH). The experiment is described as follows: Post-emergence herbicidal action against ABUTH. Conditions: 20 g/ha, post-emergence at one-leaf stage, rated visually after about 3 weeks vs untreated controls. On the procedure:
as §1, with “ABUTH: Abutilon theophrasti” for “SETVI: Setaria viridis”

The subject of experiment [2] is Amaranthus retroflexus (AMARE). Put plainly: Pre-emergence herbicidal action against AMARE. The following applies: scored visually after about 3 weeks vs untreated controls. An excerpt:
(§2) AMARE: Amaranthus retroflexus 1. Pre-Emergence Herbicidal Action and Crop Plant Compatibility Seeds of monocotyledonous and dicotyledonous weed plants and crop plants are placed in plastic or organic planting pots and covered with soil. The compounds of the invention, formulated in the form of wettable powders (WP) or as emulsion concentrates (EC), are then applied onto the surface of the covering soil as aqueous suspension or emulsion with addition of 0.5% additive at a water application rate of […] (converted). After the treatment, the pots are placed in a greenhouse and kept under good growth conditions for the trial plants. After about 3 weeks, the effect of the preparations is scored visually in comparison with untreated controls as percentages. The tables below show the herbicidal activity of numerous compounds according to the invention against important harmful plants. For example, 100% activity=the plants have died, 0% activity=like control plants.

Experiment [3] has as its system Stellaria media (STEME). Put plainly: Post-emergence herbicidal action against STEME. Conditions: 20 g/ha, post-emergence at one-leaf stage, rated visually after about 3 weeks vs untreated controls. On the procedure: as §1, with “STEME: Stellaria media” for “SETVI: Setaria viridis”
The test system of another experiment is Viola tricolor (VIOTR). Put plainly: Post-emergence herbicidal action against VIOTR. The following applies: 20 g/ha, post-emergence at one-leaf stage, rated visually after about 3 weeks vs untreated controls. Here is the method: as §1, with “VIOTR: Viola tricolor” for “SETVI: Setaria viridis”
The subject of experiment [4] is Echinochloa crus-galli (ECHCG). Put plainly: Post-emergence herbicidal action against ECHCG. Conditions: 20 g/ha, post-emergence at one-leaf stage, rated visually after about 3 weeks vs untreated controls. On the procedure: as §1, with “ECHCG: Echinochloa crus-galli” for “SETVI: Setaria viridis”
Experiment [5] has as its system Stellaria media (STEME). The experiment is described as follows: Pre-emergence herbicidal action against STEME. Conditions: 80 g/ha, scored visually after about 3 weeks vs untreated controls.
From the text: as §2, with “STEME: Stellaria media” for “AMARE: Amaranthus retroflexus”

The subject of experiment [6] is Amaranthus retroflexus (AMARE). Put plainly: Post-emergence herbicidal action against AMARE. Conditions: 20 g/ha, post-emergence at one-leaf stage, rated visually after about 3 weeks vs untreated controls. Here is the method: as §1, with “AMARE: Amaranthus retroflexus” for “SETVI: Setaria viridis”
Experiment [7] concerns Veronica persica (VERPE). Put plainly: Pre-emergence herbicidal action against VERPE. The following applies: 80 g/ha, scored visually after about 3 weeks vs untreated controls.
From the text: as §2, with “VERPE: Veronica persica” for “AMARE: Amaranthus retroflexus”

In experiment [8] the test system is Veronica persica (VERPE). Put plainly: Post-emergence herbicidal action against VERPE. The following applies: 20 g/ha, post-emergence at one-leaf stage, rated visually after about 3 weeks vs untreated controls. Here is the method: as §1, with “VERPE: Veronica persica” for “SETVI: Setaria viridis”

Take `CCn1ncc(C(=O)c2ccc(C(F)(F)F)c3c2OCS3)c1O` [Example 1-18]: in the experiment with Setaria viridis (SETVI), the “Post-emergence action against SETVI” value is reported as 80%. Moreover, in [1], the “Post-emergence action against ABUTH” value is recorded as 80%. In experiment [2] (320 g/ha), the “Pre-emergence action against AMARE” value turned out to be 100%. For the same compound, the “Post-emergence action against STEME” value in the experiment with Stellaria media (STEME) [3] came out at 90%. Also, the “Post-emergence action against VIOTR” value with Viola tricolor (VIOTR) amounted to 100%. For the same compound, in [4], the “Post-emergence action against ECHCG” value is 80%.

Regarding `Cc1nn(C)c(O)c1C(=O)c1ccc(C(F)(F)F)c2c1SCS2` [Example 1-68], in the experiment on Stellaria media (STEME) [5], the “Pre-emergence action against STEME” value was determined as 100%. Moreover, the “Pre-emergence action against AMARE” value in [2] (80 g/ha) is 100%. In addition, the “Post-emergence action against AMARE” value in [6] is reported as 90%. For the same compound, the “Post-emergence action against VIOTR” value with Viola tricolor (VIOTR) came out at 80%. Further, the “Post-emergence action against ECHCG” value in experiment [4] is 80%.

Consider `Cn1ncc(C(=O)c2ccc(C(F)(F)F)c3c2SCS3(=O)=O)c1O` [Example 1-85], for which the “Pre-emergence action against VERPE” value with Veronica persica (VERPE) [7] is recorded as 90%. Further, in the experiment with Stellaria media (STEME) [5], the “Pre-emergence action against STEME” value is given as 100%. Also, the “Post-emergence action against VERPE” value in the experiment on Veronica persica (VERPE) [8] was found to be 80%. Also, the “Pre-emergence action against AMARE” value in experiment [2] (80 g/ha) is given as 100%. In addition, the “Post-emergence action against AMARE” value in experiment [6] is 90%. The “Post-emergence action against STEME” value in the experiment on Stellaria media (STEME) [3] came out at 80%.

Consider `Cn1nc(CCC(F)(F)F)c(C(=O)c2ccc(C(F)(F)F)c3c2OCS3)c1O` [Example 1-127], for which, in the experiment with Viola tricolor (VIOTR), the “Post-emergence action against VIOTR” value was 80%.
